Where two headings read alike, the source gives them in different places.
Experiments:
subjects with PAD [1] = test system: subjects with PAD
Method: A resting 12-lead ECG printout with the subject in supine position was obtained at the time points listed in Table 1-Schedule of Assessments. All ECGs were assessed by the PI or qualified designee for clinical significance of any abnormalities or changes and documented on the ECG source document. Any clinically significant abnormalities that occured after the first dose of sodium nitrite was recorded as AEs on the eCRF. The 12-lead ECG was obtained immediately following vitals, with the exception of the Visit 1 Randomization day ECG which was collected prior to dosing.

subjects with PAD [2] = conditions: even at the 160 mg dose escalation
Method: The following safety parameters were assessed: medical and medication history, concomitant medication usage, physical examination, vital signs, 12-lead ECG, clinical chemistries, CBC, urinalysis, and adverse events. Urine pregnancy testing was completed for women of child-bearing potential who have not been surgically sterilized. Assessment of acute adverse events (i.e., drop in blood pressure, dizziness) was performed after administration of 1st dose for each dose level of sodium nitrite. Dose-limiting toxicity (DLT) was defined as Grade 3 and clinically significant hematological events, particularly MetHb.

[3] = 40-mg, Visit 1 (prior to dosing)
[4] = 80-mg, Visit 1 (prior to dosing)
[5] = 80-mg, Visit 8 (after 6-day dose escalation)
[6] = 160-mg, Visit 8 (after 6-day dose escalation)

## O=NO [sodium nitrite]
Subjects with PAD [1]; [3]
  ECG Heart Rate: 71.4 +/− 12.7 beats/minute
  QTcB interval: 415.9 ± 49.0 ms
  QTcF interval: 404.8 ± 44.9 ms
Subjects with PAD [1]; 40-mg, Visit 5 (Day 28)
  ECG Heart Rate: 72.2 +/− 14.8 beats/minute
  QTcB interval: 430.1 ± 34.8 ms
  QTcF interval: 417.7 ± 24.0 ms
Subjects with PAD [1]; [4]
  ECG Heart Rate: 62.7 +/− 10.7 beats/minute
  QTcB interval: 422.3 ± 34.0 ms
  QTcF interval: 419.9 ± 30.5 ms
Subjects with PAD [1]; 80-mg, Visit 5 (Day 28)
  ECG Heart Rate: 65.5 +/− 11.9 beats/minute
  QTcB interval: 411.6 ± 49.7 ms
  QTcF interval: 406.2 ± 46.2 ms
Subjects with PAD [1]; [5]
  ECG Heart Rate: 74.3 +/− 10.0 beats/minute
  QTcB interval: 423.2 ± 4.03 ms
  QTcF interval: 409.5 ± 34.3 ms
Subjects with PAD [1]; [6]
  ECG Heart Rate: 64.7 +/− 10.0 beats/minute
  QTcB interval: 427.7 ± 31.9 ms
  QTcF interval: 422.8 ± 27.9 ms
Subjects with PAD [2]
  Methemoglobin levels: of no concern

Reference: patent US9561249B2, “Pharmaceutical formulations of nitrite and uses thereof” (TheraVasc Inc., priority 2013, dated 2017)
